{"source": "patent US9622482B2", "about": "“Methods for increasing oil palm yield” (Valent BioSciences Corporation, priority 2014, dated 2017)", "key": {"oil palm fruit [1]": {"tested_on": "oil palm fruit", "conditions": "postharvest application, detached bunches; cited from earlier work"}, "oil palm": {"tested_on": "oil palm", "test": "Pre-harvest bunch-directed spray on oil palm, fruit abscission (cumulative loose fruit and loose mass)", "assay_type": "in vivo, oil palm (cross between Compact and Ghana)", "conditions": "for % Difference with UTC (Cumulative Loose Fruit) / % Difference with UTC (Cumulative Loose Mass) / Cumulative Loose Mass / Cumulative Loose Fruit: single spray 100 mL/bunch; for % Difference with UTC (Cumulative Loose Fruit) / % Difference with UTC (Cumulative Loose Mass) / Cumulative Loose Mass: 14 days; for Cumulative Loose Fruit: counted for 14 days", "procedure": "A study was conducted in a plantation in Costa Rica to compare the effects of single bunch-directed applications of: (1) untreated control (water sprayed); (2) AVG at 500 ppm active ingredient (a.i.); (3) 240 ppm a.i. of STS; (4) 720 ppm a.i. of STS; (5) 2,200 ppm a.i. of STS; and (6) 6,600 ppm a.i. of STS. In this study, AVG was provided in a formulation as AVG-HCl at a concentration of 20%. STS was prepared using a 100 mM sodium thiosulfate treatment. For each treatment, 23 palms were randomly selected covering about 15 hectares. The variety of plants used was a cross between Compact and Ghana. The plants were three years old at the time of treatment. A CO2 sprayer was used to spray all treatments (100 mL/bunch) to bunches with 1 to 4 loose fruits. The time required to spray each bunch was about 8 seconds at 20 psi using a 2.0 full cone nozzle. The treatments were applied once per bunch. Ten and thirteen bunches per treatment were sprayed on Apr. 15 and 22, 2015, respectively. Cumulative loose fruit (CLF) and cumulative loose mass (CLM) counts were determined on a daily basis for 14 days with the exception of day 4 and day 9 (for second spray only) and day 11 (after initial spray only) as measure to objectively quantify fruit abscission. An electronic balance was used to weigh all fruit. All loose fruit on the bunch, branches and on the ground was counted and weighed."}, "oil palm fruit [2]": {"tested_on": "oil palm fruit", "conditions": "preharvest application to attached bunches; cited from earlier work"}, "[3]": {"conditions": "240 to 6,600 ppm a.i., overall statement"}}, "data": [{"molecule": "NOCC(=O)O", "note": "[AOA, aminooxyacetic acid]", "values": [{"measurement": "abscission of oil palm fruit", "setting": "oil palm fruit [1]", "result": "delayed or suppressed abscission"}]}, {"molecule": "silverthiosulfate [STS]", "values": [{"measurement": "% Difference with UTC (Cumulative Loose Fruit)", "setting": "oil palm; 240 ppm a.i.", "result": 14.4, "unit": "%"}, {"measurement": "% Difference with UTC (Cumulative Loose Mass)", "setting": "oil palm; 240 ppm a.i.", "result": "−0.4", "unit": "%"}, {"measurement": "Cumulative Loose Mass", "setting": "oil palm; 240 ppm a.i.", "result": 1106, "unit": "g"}, {"measurement": "Cumulative Loose Fruit", "setting": "oil palm; 240 ppm a.i.", "result": 129.0}, {"measurement": "effect on cumulative loose fruit", "setting": "oil palm; [3]", "result": "did not consistently decrease"}, {"measurement": "effect on cumulative loose mass", "setting": "oil palm; [3]", "result": "did not consistently decrease"}, {"measurement": "% Difference with UTC (Cumulative Loose Fruit)", "setting": "oil palm; 720 ppm a.i.", "result": 18.7, "unit": "%"}, {"measurement": "% Difference with UTC (Cumulative Loose Mass)", "setting": "oil palm; 720 ppm a.i.", "result": 11.3, "unit": "%"}, {"measurement": "Cumulative Loose Mass", "setting": "oil palm; 720 ppm a.i.", "result": 977, "unit": "g"}, {"measurement": "Cumulative Loose Fruit", "setting": "oil palm; 720 ppm a.i.", "result": 124.7}, {"measurement": "% Difference with UTC (Cumulative Loose Fruit)", "setting": "oil palm; 2,200 ppm a.i.", "result": "−15.7", "unit": "%"}, {"measurement": "% Difference with UTC (Cumulative Loose Mass)", "setting": "oil palm; 2,200 ppm a.i.", "result": "−26.4", "unit": "%"}, {"measurement": "Cumulative Loose Mass", "setting": "oil palm; 2,200 ppm a.i.", "result": 1392, "unit": "g"}, {"measurement": "Cumulative Loose Fruit", "setting": "oil palm; 2,200 ppm a.i.", "result": 159.1}, {"measurement": "% Difference with UTC (Cumulative Loose Fruit)", "setting": "oil palm; 6,600 ppm a.i.", "result": 25.9, "unit": "%"}, {"measurement": "% Difference with UTC (Cumulative Loose Mass)", "setting": "oil palm; 6,600 ppm a.i.", "result": 7.3, "unit": "%"}, {"measurement": "Cumulative Loose Mass", "setting": "oil palm; 6,600 ppm a.i.", "result": 1020, "unit": "g"}, {"measurement": "Cumulative Loose Fruit", "setting": "oil palm; 6,600 ppm a.i.", "result": 117.5}]}, {"molecule": "NCCO/C=C/[C@H](N)C(=O)O", "note": "[AVG, aminoethyoxyvinylglycine, reference compound]", "values": [{"measurement": "% Difference with UTC (Cumulative Loose Fruit)", "setting": "oil palm; 500 ppm a.i.", "result": 71.4, "unit": "%"}, {"measurement": "% Difference with UTC (Cumulative Loose Mass)", "setting": "oil palm; 500 ppm a.i.", "result": 70.8, "unit": "%"}, {"measurement": "Cumulative Loose Mass", "setting": "oil palm; 500 ppm a.i.", "result": 321, "unit": "g"}, {"measurement": "Cumulative Loose Fruit", "setting": "oil palm; 500 ppm a.i.", "result": 72.0}]}, {"molecule": "O=P(O)(O)CCCl", "note": "[ethephon, 2-chloroethyl phosphonic acid]", "values": [{"measurement": "increase of oil content", "setting": "oil palm fruit [2]", "result": 7, "unit": "%"}]}]}
